The record followed here is ChEMBL document CHEMBL3585282, “Discovery of Highly Isoform Selective Thiazolopiperidine Inhibitors of Phosphoinositide 3-Kinase γ” (J Med Chem, 2015).

Data set [1] can be described thus: Stability in human liver microsomes assessed as compound remaining at 5 uM in presence of NADPH after 30 mins by LC-MS/MS method. The data set is classed as ADME. As to conditions: read-out: Stability. (In general: Liver microsomes are vesicles of endoplasmic reticulum, rich in cytochrome P450 enzymes.)
The nature of data set [2]: Stability in dog liver microsomes assessed as compound remaining at 5 uM in presence of NADPH after 30 mins by LC-MS/MS method. The data set is classed as ADME, Canis lupus familiaris. Conditions: read-out: Stability.
A short description of data set [3]: Stability in rat liver microsomes assessed as compound remaining at 5 uM in presence of NADPH after 30 mins by LC-MS/MS method. The data set is classed as ADME. Conditions: read-out: Stability.
The nature of data set [4]: Thermodynamic solubility in water at 5 mg incubated for 48 hrs by HPLC method. It counts as physicochemical. As to conditions: read-out: Therm_solubility.
The nature of data set [5]: Thermodynamic solubility in FaSSIF at pH 6.5 at 5 mg incubated for 48 hrs by HPLC method. Conditions: read-out: Therm_solubility. The data set is classed as physicochemical.

Molecules are shown by their SMILES. In brackets after ≈: the same amount, converted by molar mass.

As for `COc1cc(N2CCc3nc(NC(=O)NCCc4cn(CC(F)F)cn4)sc3C2)cnc1Cl`, the remaining at 0.5 h, 5 µM in data set [1] turned out to be 61%; in data set [2], 84%; in data set [3] it was 100%.
In the case of `COc1cncc(N2CCc3nc(NC(C)=O)sc3C2)c1`, the solubility thermodynamic at 48 h in data set [4] was 12.1 µg/mL (≈ 39.8 µM); in data set [5], 9.4 µg/mL (≈ 30.9 µM).
